Reference: patent US20220033407A1, “N-(pyridin-2-ylsulfonyl)cyclopropanecarboxamide Derivatives and their Use in the Treatment of Disease” (NOVARTIS AG, priority 2018, published 2022)
pEC50: −log10 of the molar value.

Target: T1, delF508-CFTR-HRP (Homo sapiens, UniProt P13569, DEL508-508)
T1 construct: expressed in transfected cells
Assay: Measurement of delF508-CFTR-HRP surface expression in CFBE41o- cells (HRP luminescence);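 on DelF508-CFTR-HRP Amax %: percent efficacy relative to a reference CFTR corrector compound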
Assay type: cell-based
Details: for Emax: CFBE41o-, read-out: DelF508-CFTR-HRP Amax %; for pEC50: mean of at least two replicates
Source text: Measurement of delF508-CFTR-HRP Surface Expression in CFBE41o-Cells
This assay quantifies the cell surface expressions of the mutant CFTR channel using an extracellular HRP tag.
A cellular assay was developed to measure surface expression of horseradish peroxidase (HRP) tagged delF508-CFTR in the human bronchial epithelial immortalized CFBE41o-cell line (Phuan, P. W., et al, (2014) Molecular Pharmacology 86:42-51). Specifically, the HRP sequence was inserted into the fourth extracellular loop of delF508-CFTR and stably expressed in CFBE41o-cells. Cells were seeded in 384 well plate at a density of 5000 cells/well and incubated at 37° C. for 12 to 24 hours in medium (Gibco MEM #11095, 10% FBS, 10 mM HEPES, […], 200 μg/mL G418, 3 μg/mL Puromycin). The delF508-CFTR-HRP expression was induced with 500 ng/mL doxycycline (Sigma D-9891, dissolved in H2O and sterile filtered) in medium and the cells were incubated at 37° C. for 48 h. Old medium was removed and fresh medium was added containing 500 ng/mL doxycycline and unknown test compound at required test concentration in DMSO, not exceeding 0.5% final DMSO concentration. The highest concentration tested was 10 μM with a 10-point concentration response curve using a 3-fold dilution. After addition of compounds, the cells were incubated for 24 h at 37° C. On the final day, cells were washed four times in PBS containing 1 mM MgCl2 and 0.1 mM CaCl2. HRP-Substrate (SuperSignal ELISA Pico, Fisher #37069) 20 μl/well was added and the luminescence signal was determined (Viewlux, Perkin Elmer). Light was emitted upon addition of exogenous HRP-Substrate only when delF508-CFTR-HRP reached the cell surface and the HRP tag was accessible to the HRP-Substrate (note: HRP-Substrate cannot cross the lipid bilayer to reach delF508-CFTR-HRP misfolded within the cell).
The median activity for the lowest concentration of the compounds on each assay plate was calculated and this value was used to normalize the signal for each well on the respective plate. Three replicates at each concentrations for every compound were run to determine one EC50. The median value was determined and used to calculate compound activities as described below. Effective half maximal values (EC50) were calculated for each compound by performing logistic regression on measured dose-response data points using the equation: […]
where “Y” is the observed activity, “Bottom” is the lowest observed value, “Top” is the highest observed value, and the “Hill coefficient” gives the largest absolute value of the slope. The curve fitting is carried out by a curve fitting program implemented at GNF using Matlab (Mathworks). The dose response curves also were used to calculate Fold Change (FC) using the equation: […]
Compound efficacy relative to the reference compound 3-(6-(1-(2,2-difluorobenzo[d][1,3]dioxol-5-yl)cyclopropane-1-carboxamido)-3-methylpyridin-2-yl)benzoic acid was determined using the following formula: […]

T1 sequence (P13569 with tags, fused parts or gaps DEL508-508): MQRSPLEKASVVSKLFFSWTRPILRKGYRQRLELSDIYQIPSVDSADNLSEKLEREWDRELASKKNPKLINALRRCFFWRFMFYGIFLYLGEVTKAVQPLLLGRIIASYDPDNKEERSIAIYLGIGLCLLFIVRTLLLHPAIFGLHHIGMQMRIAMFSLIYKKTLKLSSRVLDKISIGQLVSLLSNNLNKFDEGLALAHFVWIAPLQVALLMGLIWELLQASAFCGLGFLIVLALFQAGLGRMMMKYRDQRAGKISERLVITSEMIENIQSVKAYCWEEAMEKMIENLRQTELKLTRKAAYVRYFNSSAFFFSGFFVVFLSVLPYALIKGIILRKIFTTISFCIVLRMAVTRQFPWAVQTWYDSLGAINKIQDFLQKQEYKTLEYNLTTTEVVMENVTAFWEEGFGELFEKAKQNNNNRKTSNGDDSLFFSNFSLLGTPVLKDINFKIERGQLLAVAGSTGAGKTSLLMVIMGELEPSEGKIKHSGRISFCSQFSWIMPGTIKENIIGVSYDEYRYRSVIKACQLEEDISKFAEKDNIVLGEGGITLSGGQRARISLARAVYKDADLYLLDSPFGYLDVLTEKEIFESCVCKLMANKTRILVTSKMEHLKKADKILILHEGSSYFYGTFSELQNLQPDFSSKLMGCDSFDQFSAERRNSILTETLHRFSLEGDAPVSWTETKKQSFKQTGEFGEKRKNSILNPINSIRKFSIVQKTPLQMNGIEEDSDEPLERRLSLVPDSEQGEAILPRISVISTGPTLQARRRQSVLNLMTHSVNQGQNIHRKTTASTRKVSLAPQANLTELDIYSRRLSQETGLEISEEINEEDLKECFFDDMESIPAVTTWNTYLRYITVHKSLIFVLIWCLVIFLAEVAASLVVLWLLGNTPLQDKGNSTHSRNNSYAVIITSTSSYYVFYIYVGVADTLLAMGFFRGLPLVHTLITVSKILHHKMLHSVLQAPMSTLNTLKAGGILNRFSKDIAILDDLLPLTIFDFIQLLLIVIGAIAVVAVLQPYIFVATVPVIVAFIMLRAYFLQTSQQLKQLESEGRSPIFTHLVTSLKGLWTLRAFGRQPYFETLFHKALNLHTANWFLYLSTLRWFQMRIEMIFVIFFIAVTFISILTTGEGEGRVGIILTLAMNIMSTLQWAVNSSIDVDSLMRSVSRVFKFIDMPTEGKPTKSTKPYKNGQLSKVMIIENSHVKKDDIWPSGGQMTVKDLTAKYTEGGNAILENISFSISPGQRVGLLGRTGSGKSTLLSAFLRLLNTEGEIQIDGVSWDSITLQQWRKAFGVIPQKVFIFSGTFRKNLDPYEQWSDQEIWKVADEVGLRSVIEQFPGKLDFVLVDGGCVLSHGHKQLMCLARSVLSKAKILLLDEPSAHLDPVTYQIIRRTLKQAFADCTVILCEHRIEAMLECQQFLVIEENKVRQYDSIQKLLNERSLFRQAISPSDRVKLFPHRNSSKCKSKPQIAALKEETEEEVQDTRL

SMILES | Emax | pEC50 | DelF508-CFTR-HRP Amax %
CC1(C)CCN(c2ccc(Cl)cc2OC2(C(=O)NS(=O)(=O)c3cccc(N4CCN5C(=O)CCC5C4)n3)CC2)CC1 (stereo not drawn) [Example 10-10, 1-(8-chloro-2-(4,4-dimethylpiperidin-1-yl)phenoxy)-N-((6-(6-oxohexahydropyrrolo[1,2-a]pyrazin-2(1H)-yl)pyridin-2-yl)sulfonyl)cyclopropanecarboxamide] | 210% | 5.58 | –
Cc1ccc(C2CCCCC2)c(OC2(C(=O)NS(=O)(=O)c3cccc(N4CCC(NC(=O)OC(C)(C)C)CC4)n3)CC2)c1 [Example 2-43, Tert-butyl (1-(6-(N-(1-(2-cyclohexyl-5-methylphenoxy)cyclopropanecarbonyl)sulfamoyl)pyridin-2-yl)piperidin-4-yl)carbamate] | 556% | 5.95 | –
C[C@]1(O)CCN(c2cccc(S(=O)(=O)NC(=O)C3(Oc4cc(Cl)ccc4N4CCC5(CC4)CC5)CC3)n2)C1 [Example 9-28, (S)-1-(5-Chloro-2-(6-azaspiro[2.5]octan-6-yl)phenoxy)-N-((6-(3-hydroxy-3-methylpyrrolidin-1-yl)pyridin-2-yl)sulfonyl)cyclopropanecarboxamide] | 755% | 6.26 | –
C=C(c1ccc(F)cc1OC1(C(=O)NS(=O)(=O)c2cccc(N3CCN(c4ccccc4)CC3)n2)CC1)C(F)(F)F [Example 4-18, 1-(5-Fluoro-2-(3,3,3-trifluoroprop-1-en-2-yl)phenoxy)-N-((6-(4-phenylpiperazin-1-yl)pyridin-2-yl)sulfonyl)cyclopropane-1-carboxamide] | 160% | 5.47 | –
O=C(NS(=O)(=O)c1cccc(N2CC[C@H](O)C2)n1)C1(Oc2cc(Cl)ccc2-c2ccc(F)c(C(F)(F)F)c2)CC1 [Example 5-7] | 279% | 5.86 | –
O=C(NS(=O)(=O)c1cccc(N2CC[C@H](O)C2)n1)C1(Oc2cc(Cl)ccc2-c2ccc3ccoc3c2)CC1 [Example 5-4, (S)-1-(2-(Benzofuran-6-yl)-5-chlorophenoxy)-N-((6-(3-hydroxypyrrolidin-1-yl)pyridin-2-yl)sulfonyl)cyclopropane-1-carboxamide] | 376% | 5.69 | –
O=C(NS(=O)(=O)c1cccc(N2CC3(CCO3)C2)n1)C1(Oc2cc(Cl)ccc2C2CC3(CCC3)C2)CC1 [Example 7-5, N-((6-(1-oxa-6-azaspiro[3.3]heptan-6-yl)pyridin-2-yl)sulfonyl)-1-(5-chloro-2-(spiro[3.3]heptan-2-yl)phenoxy)cyclopropanecarboxamide] | 493% | 6.06 | –
CC1(O)CCN(c2cccc(S(=O)(=O)NC(=O)C3(Oc4cc(Cl)ccc4C4CC5(CCC5)C4)CCCC3)n2)C1 (single isomer, unassigned) [Example 7-18-1, 1-(5-Chloro-2-(spiro[3.3]heptan-2-yl)phenoxy)-N-((6-(3-hydroxy-3-methylpyrrolidin-1-yl)pyridin-2-yl)sulfonyl)cyclopentane-1-carboxamide] | – | 6.05 | 493.9%
CC1CC(C)CN(c2ccc(Cl)cc2OC2(C(=O)NS(=O)(=O)c3cccc(N4CC[C@H](O)C4)n3)CC2)C1 (stereo partly drawn) [Example 9-17, 1-(5-Chloro-2-(3,5-dimethylpiperidin-1-yl)phenoxy)-N-((6-((S)-3-hydroxypyrrolidin-1-yl)pyridin-2-yl)sulfonyl)cyclopropanecarboxamide] | 176% | 5.89 | –
O=C(NS(=O)(=O)c1cccc(N2CC[C@H](O)C2)n1)C1(Oc2cc(Cl)ccc2N2CC3(COC3)C2)CC1 [Example 9-23, (S)-1-(5-Chloro-2-(2-oxa-6-azaspiro[3.3]heptan-6-yl)phenoxy)-N-((6-(3-hydroxypyrrolidin-1-yl)pyridin-2-yl)sulfonyl)cyclopropanecarboxamide] | 13.7% | 5.00 | –
O=C(NS(=O)(=O)c1cccc(N2CC[C@H](O)C2)n1)C1(Oc2cc(Cl)ccc2N2CCC(O)(c3ccccn3)CC2)CC1 [Example 9-37, (S)-1-(5-Chloro-2-(4-hydroxy-4-(pyridin-2-yl)piperidin-1-yl)phenoxy)-N-((6-(3-hydroxypyrrolidin-1-yl)pyridin-2-yl)sulfonyl)cyclopropanecarboxamide] | 12.6% | 7.10 | –
CC(C)COc1cccc(-c2ccc(Cl)cc2OC2(C(=O)NS(=O)(=O)c3cccc(N4CCC(C)(C#N)CC4)n3)CC2)c1 [Example 5-3, 1-((4-Chloro-3′-isobutoxy-[1,1′-biphenyl]-2-yl)oxy)-N-((6-(4-cyano-4-methylpiperidin-1-yl)pyridin-2-yl)sulfonyl)cyclopropane-1-carboxamide] | 286% | 6.12 | –
CC1(O)CCCN(c2cccc(S(=O)(=O)NC(=O)C3(Oc4cc(Cl)ccc4C4CC5(CCC5)C4)CC3)n2)C1 (single isomer, unassigned) [Example 7-8-2, 1-(5-chloro-2-(spiro[3.3]heptan-2-yl)phenoxy)-N-((6-(3-hydroxy-3-methylpiperidin-1-yl)pyridin-2-yl)sulfonyl)cyclopropanecarboxamide] | – | 5.99 | 248.0%
CC(C)(C)C1CCC(Nc2ccc(Cl)cc2OC2(C(=O)NS(=O)(=O)c3cccc(N4CC[C@H](O)C4)n3)CC2)CC1 (single isomer, unassigned) [Example 9-5-2] | – | 6.48 | 678.4%
CC1(C)CCN(c2ccc(Cl)cc2OC2(C(=O)NS(=O)(=O)c3cccc(N4CCC(C)(O)C4)n3)CC2)CC1 (single isomer, unassigned) [Example 9-39-1, 1-(5-Chloro-2-(4,4-dimethylpiperidin-1-yl)phenoxy)-N-((6-(3-hydroxy-3-methylpyrrolidin-1-yl)pyridin-2-yl)sulfonyl)cyclopropane-1-carboxamide] | – | 6.24 | 726.4%
Cc1ccc(N2CCC(C)(C)CC2)c(OC2(C(=O)NS(=O)(=O)c3cccc(N)n3)CC2)c1 [Example 9-44, N-((6-Aminopyridin-2-yl)sulfonyl)-1-(2-(4,4-dimethylpiperidin-1-yl)-5-methylphenoxy)cyclopropane-1-carboxamide] | 234% | 5.81 | –
O=C(NS(=O)(=O)c1cccc(N2CC[C@H](O)C2)n1)C1(Oc2cc(C(F)(F)F)ccc2N2CC3(CCC3)C2)CC1 [Example 9-25, (S)-1-(2-(2-Azaspiro[3.3]heptan-2-yl)-5-(trifluoromethyl)phenoxy)-N-((6-(3-hydroxypyrrolidin-1-yl)pyridin-2-yl)sulfonyl)cyclopropanecarboxamide] | 408% | 5.75 | –
CC1(C)CCCN(c2ccc(Cl)cc2OC2(C(=O)NS(=O)(=O)c3cccc(N4CC[C@](C)(O)C4)n3)CC2)C1 [Example 9-27, (S)-1-(5-Chloro-2-(3,3-dimethylpiperidin-1-yl)phenoxy)-N-((6-(3-hydroxy-3-methylpyrrolidin-1-yl)pyridin-2-yl)sulfonyl)cyclopropanecarboxamide] | 857% | 6.21 | –
CC1(O)CCN(c2cccc(S(=O)(=O)NC(=O)C3(Oc4cc(Cl)ccc4N4CCC(C(C)(C)C)CC4)CC3)n2)CC1 [Example 9-35, 1-(2-(4-(Tert-butyl)piperidin-1-yl)-5-chlorophenoxy)-N-((6-(4-hydroxy-4-methylpiperidin-1-yl)pyridin-2-yl)sulfonyl)cyclopropanecarboxamide] | 140% | 6.47 | –
CC1(C)CCCN(c2ccc(Cl)cc2OC2(C(=O)NS(=O)(=O)c3cccc(N4CCC(O)(C(F)(F)F)CC4)n3)CC2)C1 [Example 10-7, 1-(5-chloro-2-(3,3-dimethylpiperidin-1-yl)phenoxy)-N-((6-(4-hydroxy-4-(trifluoromethyl)piperidin-1-yl)pyridin-2-yl)sulfonyl)cyclopropanecarboxamide] | 604% | 6.80 | –
Cc1ccc(-c2cc(C(F)(F)F)ccn2)c(OC2(C(=O)NS(=O)(=O)c3cccc(N4CC[C@H](O)C4)n3)CC2)c1 [Example 5-13, (S)—N-((6-(3-Hydroxypyrrolidin-1-yl)pyridin-2-yl)sulfonyl)-1-(5-methyl-2-(4-(trifluoromethyl)pyridin-2-yl)phenoxy)cyclopropane-1-carboxamide] | 513% | 5.68 | –
